According to patent US6924314B2, “Compounds for the treatment of metabolic disorders” (Wellstat Therapeutics Corporation, priority 2001, dated 2005):

Key:
[1] = test system: db/db mice; test: Antidiabetic effects in db/db mice, 2 weeks (Example I); type: in vivo, C57BL/Ksola mice; details: for Glucose / Glucose (% of Control): nonfasting; for Free Fatty Acids ± SEM / Triglycerides ± SEM: serum
Source text: (§1) db/db mice have a defect in leptin signaling, leading to hyperphagia, obesity and diabetes. Moreover, unlike ob/ob mice on a C57BL/6J background, db/db mice on a C57BL/KS background undergo failure of their insulin-producing pancreatic islet β cells, resulting in progression from hyperinsulinemia (associated with peripheral insulin resistance) to hypoinsulinemic diabetes.
(§2) A minimum of 7 days was allowed for adaptation after arrival.
Treatment cohorts were given daily oral doses of (1% hydroxypropylmethylcellulose), Compounds BI, BO, BP, BQ or BR for 2 weeks. At the end of the treatment period 100 μl of venous blood was withdrawn in a heparinized capillary tube from the retro-orbital sinus of db/db mice for serum chemistry analysis.

[2] = test system: db/db mice; test: Antidiabetic effects in db/db mice, 2 weeks (Example J); type: in vivo, C57BL/Ksola mice; details: for Glucose / Glucose (% of Control): nonfasting; for Free Fatty Acids ± SEM / Triglycerides ± SEM: serum, daily oral
Source text: as §1, with “islet” for “islet β”
as §2
Treatment cohorts were given daily oral doses of Vehicle (1% hydroxypropylmethylcellulose), Compounds BI, BS, BT, BU, BV or Fenofibrate for 2 weeks. At the end of the treatment period 100 μl of venous blood was withdrawn in a heparinized capillary tube from the retro-orbital sinus of db/db mice for serum chemistry analysis.

[3] = test system: ob/ob obese diabetic mice; test: Acute hypoglycemic effect in ob/ob obese diabetic mice: Experiment 1; type: in vivo
Experimental: Male ob/ob diabetic mice were randomized into groups of five animals each. Body weights were 50-55 g and blood glucose was approximately 300 mg/dL in the fed state. A single oral dose of a test substance suspended in 0.5% carboxymethylcellulose vehicle was administered by gavage. Blood glucose was measured in blood droplets obtained by nicking a tail vein with a razor using glucometer test strips and a Glucometer Elite XL device (Bayer) at 0, 0.5, 2, 4, 6 and 18 hours after the initial dosing. A 10% reduction in blood glucose versus oral vehicle is considered a positive screening result. Blood glucose reductions were generally maximal at 6 hours after drug administration.

[4] = test system: ob/ob obese diabetic mice; test: Acute hypoglycemic effect in ob/ob obese diabetic mice: Expt 2; type: in vivo; details: single oral dose 250 mg/kg; for change in vivo at 250 mg/kg: Mus musculus, 6 hours, read-out: % Reduction vs Control
Experimental: Male ob/ob mice (50-55 grams; blood glucose ˜300 mg/dL) were divided into groups of five animals each, and given a single oral dose of test drug (250 mg/kg) suspended in 0.5% carboxymethylcellulose vehicle; a control group received oral vehicle alone.
Six hours after oral administration of test drugs or vehicle (control), blood samples were obtained from a tail vein and glucose content was determined with a glucometer.

[5] = test system: high fat-fed C57Bl/6J mice; test: Circulating triglycerides, free fatty acids, insulin and leptin in high fat-fed C57Bl/6J mice; type: in vivo; details: for Free Fatty Acids / Triglycerides: after 2 weeks of drug treatments
Source text: The high fat-fed mouse is a model for the hypertriglyceridemia and high circulating fatty acid levels, and the insulin and leptin resistance that are found in people at risk for and with obesity, diabetes, cardiovascular disease and other disorders. Male C57Bl/6J mice, approximately 8 weeks of age, were randomly assigned into groups of 6 animals. […] Mice were fed a high-fat diet (diet number D12451, containing 45% of calories as fat (Research Diets, New Brunswick, N.J.)) for 6 weeks. […]

[6] = single oral dose by gavage, 6 hours

COc1cccc(OC)c1COc1cccc(C(=O)CCC(=O)O)c1 [BO, 4-(3-(2,6-Dimethoxybenzyloxy)phenyl)-4-oxobutyric acid]
Glucose ([1]; 100 mg/kg daily oral): 586 ± 58 mg/dL | Glucose (% of Control) ([1]; 100 mg/kg daily oral): 93 ± 9 % of Control | Free Fatty Acids ± SEM ([1]; 100 mg/kg daily oral): 3766.3 ± 234.5 µM | Triglycerides ± SEM ([1]; 100 mg/kg daily oral): 261.1 ± 24.3 mg/dL

Cc1cccc(C)c1COc1cccc(C(=O)CC(C)(C)C(=O)O)c1 [BP, 4-(3-(2,6-Dimethylbenzyloxy)phenyl)-4-oxo-2,2-dimethylbutyric acid]
Glucose ([1]; 100 mg/kg daily oral): 629 ± 86 mg/dL | Glucose (% of Control) ([1]; 100 mg/kg daily oral): 99 ± 14 % of Control | Free Fatty Acids ± SEM ([1]; 100 mg/kg daily oral): 3772.6 ± 182.5 µM | Triglycerides ± SEM ([1]; 100 mg/kg daily oral): 302.1 ± 28.1 mg/dL

O=C(O)CCC(=O)c1cccc(OCc2ccc(C(F)(F)F)cc2)c1 [BQ, 4-(3-(4-Trifluoromethylbenzyloxy)phenyl)-4-oxobutyric acid]
Glucose ([1]; 100 mg/kg daily oral): 473 ± 49 mg/dL | Glucose (% of Control) ([1]; 100 mg/kg daily oral): 75 ± 7 % of Control | Free Fatty Acids ± SEM ([1]; 100 mg/kg daily oral): 2825.9 ± 110.9 µM | Triglycerides ± SEM ([1]; 100 mg/kg daily oral): 131.6 ± 20.7 mg/dL

O=C(O)CCC(=O)c1cccc(OCC2CCC2)c1 [BR, 4-(3-((Cyclobutyl)-methoxy)phenyl)-4-oxobutyric acid]
Glucose ([1]; 82 mg/kg daily oral): 703 ± 64 mg/dL | Glucose (% of Control) ([1]; 82 mg/kg daily oral): 111 ± 10 % of Control | Free Fatty Acids ± SEM ([1]; 82 mg/kg daily oral): 3653.4 ± 207.5 µM | Triglycerides ± SEM ([1]; 82 mg/kg daily oral): 253.0 ± 32.0 mg/dL

Cc1cccc(C)c1COc1cccc(CCCC(=O)O)c1 [BS, 4-(3-(2,6-Dimethylbenzyloxy)phenyl)butyric acid]
Glucose ([2]; 93 mg/kg daily oral): 372.0 ± 53.8 mg/dL | Glucose (% of Control) ([2]; 93 mg/kg daily oral): 54 ± 8 % of Control | Free Fatty Acids ± SEM ([2]; dose per Table 12: 93 mg/kg): 2867.4 ± 267.7 µM | Triglycerides ± SEM ([2]; dose per Table 12: 93 mg/kg): 132.0 ± 15.2 mg/dL

COc1cc(C(=O)CCC(=O)O)ccc1OCc1c(C)cccc1C [BT, 4-[[4-(2,6-Dimethylbenzyloxy)-3-methoxy]phenyl]-4-oxobutyric acid]
Glucose ([2]; 107 mg/kg daily oral): 684.3 ± 63.6 mg/dL | Glucose (% of Control) ([2]; 107 mg/kg daily oral): 99 ± 9 % of Control | Free Fatty Acids ± SEM ([2]; dose per Table 12: 107 mg/kg): 3897.7 ± 291.3 µM | Triglycerides ± SEM ([2]; dose per Table 12: 107 mg/kg): 211.5 ± 21.5 mg/dL

COc1ccccc1COc1ccc(C(=O)CCC(=O)O)cc1 [Compound AB, 4-(4-(2-Methoxybenzyloxy)phenyl)-4-oxobutyric acid]
% Reduction vs Control [3, 6]: −39.1 ± 6.4% | Blood Glucose after 6 hours [3, 6]: 181 ± 19 mg/dL

O=C(O)CCC(=O)c1ccc(OCc2ccccn2)cc1 [Compound AF, 4-(4-((2-Pyridinyl)-methoxy)phenyl)-4-oxobutyric acid]
Blood Glucose after 6 hours [3, 6]: 314 ± 32 mg/dL | % Reduction vs Control ([3]; single oral dose, 6 hour reading normalized to initial blood glucose of this group, 416 ± 29 mg/dL): −24.6 ± 7.7 %

O=C(O)CCC(=O)c1ccc(OCc2ccccc2)cc1 [Compound AG, 4-(4-(Benzyloxy)phenyl)-4-oxobutyric acid]
% Reduction vs Control [3, 6]: −25.3 ± 7.7% | Blood Glucose after 6 hours [3, 6]: 222 ± 23 mg/dL

O=C(O)CCC(=O)c1ccc(OCc2ccccc2Cl)cc1 [Compound AI, 4-(4-(2-Chlorobenzyloxy)phenyl)-4-oxobutyric acid]
% Reduction vs Control [3, 6]: −14.1 ± 3.0% | Blood Glucose after 6 hours [3, 6]: 255 ± 9 mg/dL

O=C(O)CCC(=O)c1ccc(OCCc2ccccc2F)cc1 [Compound AJ, 4-(4-(2-(2-Fluorophenyl)ethoxy)phenyl)-4-oxobutyric acid]
% Reduction vs Control [3, 6]: −36.0 ± 4.7% | Blood Glucose after 6 hours [3, 6]: 190 ± 14 mg/dL

CCOC(=O)CCC(=O)c1ccc(OCc2ccccc2F)cc1 [Compound AK, Ethyl 4-(4-(2-fluorobenzyloxyl)phenyl)-4-oxobutyrate]
% Reduction vs Control [3, 6]: −29.3 ± 3.4% | Blood Glucose after 6 hours [3, 6]: 210 ± 10 mg/dL

Cc1ccccc1COc1ccc(C(=O)CCC(=O)O)cc1 [Compound AL, 4-(4-(2-Methylbenzyloxy)phenyl)-4-oxobutyric acid]
% Reduction vs Control [3, 6]: −43.4 ± 4.4% | Blood Glucose after 6 hours [3, 6]: 168 ± 13 mg/dL

Cc1ccccc1COc1cccc(C(=O)CCC(=O)O)c1 [Compound AN, 4-(3-(2-Methylbenzyloxy)phenyl)-4-oxobutyric acid]
change in vivo at 250 mg/kg [4]: -50.2 ± 4.5% | Blood Glucose after 6 hours [4]: 152 ± 11 mg/dL

CCOC(=O)CCC(=O)c1ccc(OCc2c(F)cccc2F)cc1 [Compound AQ, Ethyl 4-(4-(2,6-difluorobenzyloxyl)phenyl)-4-oxobutyrate]
change in vivo at 250 mg/kg [4]: -27.9 ± 4.2% | Blood Glucose after 6 hours [4]: 220 ± 17 mg/dL

O=C(O)CCC(=O)c1ccc(OCCc2cccs2)cc1 [Compound AR, 4-(4-(2-(2-Thienyl)ethoxy)phenyl)-4-oxobutyric acid]
change in vivo at 250 mg/kg [4]: -41.3 ± 4.2% | Blood Glucose after 6 hours [4]: 179 ± 14 mg/dL

O=C(O)CCC(=O)c1c(F)cccc1F [Compound AS, 4-(2,6-Difluorophenyl)-4-oxobutyric acid]
change in vivo at 250 mg/kg [4]: -45.2 ± 2% | Blood Glucose after 6 hours [4]: 167 ± 28 mg/dL

Cc1ccc(C)c(COc2ccc(C(=O)CCC(=O)O)cc2)c1 [Compound AT, 4-(4-(2,5-Dimethylbenzyloxy)phenyl)-4-oxobutyric acid]
change in vivo at 250 mg/kg [4]: -35.1 ± 2.3% | Blood Glucose after 6 hours [4]: 198 ± 28 mg/dL

O=C(O)CCC(=O)c1ccc(OCc2cc(F)ccc2F)cc1 [Compound AU, 4-(4-(2,5-Difluorobenzyloxy)phenyl)-4-oxobutyric acid]
change in vivo at 250 mg/kg [4]: -26.6 ± 2.8% | Blood Glucose after 6 hours [4]: 224 ± 26 mg/dL

O=C(O)CCC(=O)c1ccc(OCc2ccc(F)cc2F)cc1 [Compound AV, 4-(4-(2,4-Difluorobenzyloxy)phenyl)-4-oxobutyric acid]
change in vivo at 250 mg/kg [4]: -32.1 ± 3% | Blood Glucose after 6 hours [4]: 207 ± 23 mg/dL

O=C(O)CCC(=O)c1ccc(OCC2CC2)cc1 [Compound AX, 4-(4-((Cyclopropyl)-methoxy)phenyl)-4-oxobutyric acid]
change in vivo at 250 mg/kg [4]: -45.9 ± 2.4% | Blood Glucose after 6 hours [4]: 165 ± 23 mg/dL

O=C(O)CCC(=O)c1ccc(OCc2ccccc2C(F)(F)F)cc1 [Compound AY, 4-(4-(2-Trifluoromethylbenzyloxy)phenyl)-4-oxobutyric acid]
change in vivo at 250 mg/kg [4]: -39.3 ± 2.9% | Blood Glucose after 6 hours [4]: 185 ± 21 mg/dL

O=C(O)CCSCc1ccc(OCc2c(F)cccc2F)cc1 [Compound AZ, 3-[(4-(2,6-Difluorobenzyloxy)phenyl)-methylthio]propionic acid]
change in vivo at 250 mg/kg [4]: -39 ± 6.1% | Blood Glucose after 6 hours [4]: 186 ± 10 mg/dL

Cc1cccc(C)c1COc1cccc(C(=O)CCC(=O)[O-])c1.[Na+] [Compound BL, 4-(3-(2,6-Dimethylbenzyloxy)phenyl)-4-oxobutyric acid Sodium salt]
Free Fatty Acids ([5]; 10 mg/kg oral gavage): 1571.8 ± 100.9 µmol/L | Triglycerides ([5]; 10 mg/kg oral gavage): 80 ± 12.2 mg/dL | Free Fatty Acids ([5]; 30 mg/kg oral gavage): 1413.2 ± 228.7 µmol/L | Triglycerides ([5]; 30 mg/kg oral gavage): 66.4 ± 13.7 mg/dL | Free Fatty Acids ([5]; 100 mg/kg oral gavage): 1133.5 ± 132.7 µmol/L | Triglycerides ([5]; 100 mg/kg oral gavage): 41 ± 5.6 mg/dL | serum triglycerides and free fatty acids ([5]; oral gavage): effective at lowering | insulin serum levels ([5]; oral gavage, after 4 weeks of drug treatments (FIG. 1)): effective at lowering | leptin serum levels ([5]; oral gavage, after 4 weeks of drug treatments (FIG. 2)): effective at lowering

CC(C)OC(=O)C(C)(C)Oc1ccc(C(=O)c2ccc(Cl)cc2)cc1 [Fenofibrate, reference compound]
Glucose ([2]; 113 mg/kg daily oral): 563.2 ± 49.0 mg/dL | Glucose (% of Control) ([2]; 113 mg/kg daily oral): 81 ± 7 % of Control | Free Fatty Acids ± SEM ([2]; dose per Table 12: 113 mg/kg): 3318.5 ± 208.7 µM | Triglycerides ± SEM ([2]; dose per Table 12: 113 mg/kg): 109.3 ± 9.1 mg/dL

Cc1cccc(Nc2cc(Cl)nc(SCC(=O)O)n2)c1C [Wy14643, reference compound]
Free Fatty Acids ([5]; 10 mg/kg oral gavage): 1512.2 ± 172.9 µmol/L | Triglycerides ([5]; 10 mg/kg oral gavage): 70.6 ± 10.8 mg/dL | Free Fatty Acids ([5]; 30 mg/kg oral gavage): 1676 ± 237 µmol/L | Triglycerides ([5]; 30 mg/kg oral gavage): 88 ± 12.5 mg/dL | Free Fatty Acids ([5]; 100 mg/kg oral gavage): 1839.8 ± 154.8 µmol/L | Triglycerides ([5]; 100 mg/kg oral gavage): 88.4 ± 18.8 mg/dL
